Data set [1] can be described thus: Inhibition of pigeon liver dihydrofolate reductase. Also noted: species or system Columba livia. Particulars: read-out: I50.
The next data set deals with Columba livia. In words: Potency index, ratio of I50 for MTX to I50 for compound against pigeon liver dihydrofolate reductase.
For data set [2], the system named is KB. Put plainly: Cytotoxicity against human KB cells. The format is functional. The conditions noted are these: read-out: ED50 (the source's name).
In data set [3] the test system is KB. In words: Potency index, ratio of ED50 for MTX to ED50 for compound against human KB cells. It is filed as functional.
Data set [4] concerns L1210. Put plainly: Antitumor activity against mouse L1210 cells […] in mouse assessed as increase in life span at 25 mg/kg, ip qd from day 1 to day 9 relative to control. The format is functional. Particulars: route intraperitoneal.
Data set [5] has as its system L1210. Put plainly: Antitumor activity against mouse L1210 cells […] in mouse assessed as increase in life span at 500 mg/kg, ip qd from day 1 to day 9 relative to control. The format is functional. The conditions noted are these: route intraperitoneal.
In data set [6] the test system is L1210. In words: Antitumor activity against mouse L1210 cells […] in mouse assessed as increase in life span at 0.67 mg/kg, ip qd from day 1 to day 9 relative to control. It is filed as functional. The conditions noted are these: route intraperitoneal.
The subject of data set [7] is L1210. In words: Antitumor activity against mouse L1210 cells […] in mouse assessed as increase in life span at 100 mg/kg, ip qd from day 1 to day 9 relative to control. The format is functional. Particulars: route intraperitoneal.
Data set [8] relates to L1210. In words: Antitumor activity against mouse L1210 cells […] in mouse assessed as increase in life span at 50 mg/kg, ip qd from day 1 to day 9 relative to control. It is filed as functional. The conditions noted are these: route intraperitoneal.
Data set [9] deals with L1210. In words: Antitumor activity against mouse L1210 cells […] in mouse assessed as increase in life span at 10 mg/kg, ip qd from day 1 to day 9 relative to control. It is filed as functional. Particulars: route intraperitoneal.
Data set [10] is described as follows: Cytotoxicity against human Hep2 cells. It is filed as functional. The conditions noted are these: HEp-2, read-out: ED50 (the source's name).
The next data set concerns HEp-2. Put plainly: Potency index, ratio of ED50 for MTX to ED50 for compound against human Hep2 cells. It is filed as functional.
The nature of data set [11]: Dissociation constant, pKa of the compound. It is filed as physicochemical.
The test system of data set [12] is L1210. In words: Antitumor activity against mouse L1210 cells […] in mouse assessed as increase in life span at 200 mg/kg, ip qd administered on day 2 and day 6 relative to control. The format is functional. Particulars: route intraperitoneal.
The subject of data set [13] is L1210. Put plainly: Antitumor activity against mouse L1210 cells […] in mouse assessed as increase in life span at 1.3 mg/kg, ip qd from day 1 to day 9 relative to control. The format is functional. The conditions noted are these: route intraperitoneal.
For data set [14], the system named is L1210. In words: Antitumor activity against mouse L1210 cells […] in mouse assessed as increase in life span at 0.44 mg/kg, ip qd from day 1 to day 9 relative to control. Particulars: route intraperitoneal. It is filed as functional.
The subject of data set [15] is L1210. In words: Antitumor activity against mouse L1210 cells […] in mouse assessed as increase in life span at 200 mg/kg, ip qd from day 1 to day 9 relative to control. The format is functional. Particulars: route intraperitoneal.
The subject of data set [16] is L1210. Put plainly: Antitumor activity against mouse L1210 cells […] in mouse assessed as increase in life span at 20 mg/kg, ip qd from day 1 to day 9 relative to control. It is filed as functional. Particulars: route intraperitoneal.
The test system of data set [17] is L1210. Put plainly: Antitumor activity against mouse L1210 cells […] in mouse assessed as increase in life span at 1.5 mg/kg, ip qd from day 1 to day 9 relative to control. It is filed as functional. The conditions noted are these: route intraperitoneal.

≈ marks a conversion by molar mass, not a printed value.

By ILS is commonly meant how much longer treated animals lived than controls. The term pKa denotes the pH at which an ionisable group is half protonated. Read a low pKa as a stronger acid or weaker base.

For `Nc1nc(N)c2nc(CNc3ccc(C(=O)NCC(=O)O)cc3)cnc2n1`, the IC50 in data set [1] worked out at 1.1 µM. Also, the Ratio in the data set on Columba livia worked out at 42. The EC50 in the data set on KB [2] is 88 mg/L (≈ 239 µM). Also, in the data set on KB [3], the “Ratio ED50” value amounted to 22000.
As to `Nc1nc(N)c2nc(CNc3ccc(C(=O)NCCCC(=O)O)cc3)cnc2n1`, in data set [1], the IC50 was 0.38 µM. The Ratio in the data set with Columba livia is 15. Moreover, in the data set with KB [2], the EC50 is greater than 100 mg/L. In addition, the ILS at 25 mg/kg with L1210 [4] is 1%.
Regarding `Nc1nc(N)c2nc(CNc3ccc(CC(=O)N[C@@H](CCC(=O)O)C(=O)O)cc3)cnc2n1`, in data set [1], the IC50 was 0.38 µM. Also, the Ratio in the data set with Columba livia amounted to 15. Further, in the data set with KB [2], the EC50 amounted to 41 mg/L (≈ 90.2 µM). Further, the “Ratio ED50” value with KB [3] was 10000. In the data set with L1210 [5], the ILS at 500 mg/kg was 35%.
With `Nc1nc(N)c2nc(CNc3ccc(C(=O)N[C@@H](CCC(=O)O)C(=O)O)cc3)cnc2n1` [AMINOPTERIN], the IC50 in data set [1] was 0.026 µM. Also, the Ratio in the data set on Columba livia was found to be 1. Besides, the ILS at 0.67 mg/kg in the data set with L1210 [6] stood at 74%. Further, the EC50 in the data set with KB [2] stood at 0.003 mg/L (≈ 0.00681 µM). Besides, the “Ratio ED50” value with KB [3] was determined as 0.75.
With `Nc1nc(N)c2nc(CNc3ccc(S(=O)(=O)N[C@@H](CCC(=O)O)C(=O)O)cc3)cnc2n1`, the IC50 in data set [1] came to 1.1 µM. Further, the Ratio in the data set with Columba livia was found to be 39. Moreover, the EC50 in the data set on KB [2] was 45 mg/L (≈ 94.4 µM). In addition, the “Ratio ED50” value in the data set with KB [3] was 11000. Besides, in the data set on L1210 [7], the ILS at 100 mg/kg amounted to 27%.
Take `CN(Cc1ccc(C(=O)N[C@@H](CCC(=O)O)C(=O)O)cc1)Cc1cnc2nc(N)nc(N)c2n1`: the IC50 in data set [1] was determined as 0.75 µM. Also, in the data set on Columba livia, the Ratio amounted to 29. For the same molecule, the EC50 in the data set on KB [2] came to 0.043 mg/L (≈ 0.0918 µM). Further, the ILS at 50 mg/kg in the data set with L1210 [8] turned out to be 36%. In addition, in the data set with KB [3], the “Ratio ED50” value was 11.
Take `CCN(Cc1cnc2nc(N)nc(N)c2n1)c1c(Cl)cc(C(=O)N[C@@H](CCC(=O)O)C(=O)O)cc1Cl`: the IC50 in [1] came out at 0.05 µM. Also, in the data set with Columba livia, the Ratio came to 1.1. The EC50 with KB [2] came to 0.022 mg/L (≈ 0.0409 µM). For the same molecule, the “Ratio ED50” value with KB [3] came to 5.5. The ILS at 100 mg/kg in the data set on L1210 [7] is 70%.
Consider `CCN(Cc1cnc2nc(N)nc(N)c2n1)c1ccc(C(=O)N[C@@H](CCC(=O)O)C(=O)O)cc1`, for which the IC50 in data set [1] was found to be 0.045 µM. Besides, the Ratio in the data set on Columba livia is 1. Also, the ILS at 10 mg/kg in the data set with L1210 [9] is 117%. The EC50 in the data set on KB [2] is 0.005 mg/L (≈ 0.0107 µM). Further, in the data set on KB [3], the “Ratio ED50” value was 1.3.
With `CN(CCCCC(=O)N[C@@H](CCC(=O)O)C(=O)O)Cc1cnc2nc(N)nc(N)c2n1`, the IC50 in data set [1] turned out to be 20 µM. Further, the Ratio in the data set on Columba livia worked out at 770. The EC50 in the data set with KB [2] was greater than 100 mg/L.
Regarding `Nc1nc(N)c2nc(CN(c3ccccc3)c3ccc(C(=O)N[C@@H](CCC(=O)O)C(=O)O)cc3)cnc2n1`, the IC50 in [1] was found to be 0.28 µM. Further, the Ratio in the data set with Columba livia came out at 11. The EC50 in the data set on KB [2] is 26 mg/L (≈ 50.3 µM). In addition, in the data set with KB [3], the “Ratio ED50” value is reported as 6500.
`CN(Cc1cnc2nc(N)cc(N)c2n1)c1ccc(C(=O)N[C@@H](CCC(=O)O)C(=O)O)cc1`: in data set [1], the IC50 is 0.063 µM. Further, the Ratio in the data set with Columba livia was determined as 4.8. The EC50 in [10] worked out at 0.05 mg/L (≈ 0.11 µM). Besides, in the data set on L1210 [7], the ILS at 100 mg/kg is 64%. Moreover, the “Ratio ED50” value in the data set on HEp-2 is listed as 13.
`CN(Cc1cnc2nc(N)c([N+](=O)[O-])c(N)c2n1)c1ccc(C(=O)N[C@@H](CCC(=O)O)C(=O)O)cc1`: the IC50 in data set [1] is 38 µM. The Ratio with Columba livia turned out to be 1400. Besides, in the data set on KB [2], the EC50 was greater than 100 mg/L. The pKa in data set [11] was 4.3. In addition, in the data set with L1210 [12], the ILS at 200 mg/kg is 1%.
Regarding `Nc1nc(N)c2nc(COc3ccc(C(=O)N[C@@H](CCC(=O)O)C(=O)O)cc3)cnc2n1`, the IC50 in [1] was found to be 0.51 µM. In addition, in the data set with Columba livia, the Ratio amounted to 20. Besides, the EC50 in the data set with KB [2] came out at 3.5 mg/L (≈ 7.93 µM). Besides, the “Ratio ED50” value in the data set with KB [3] came out at 875. The ILS at 1.3 mg/kg in the data set on L1210 [13] was 32%.
On to `Nc1nc(N)c2nc(CNc3ccc(C(=O)N[C@@H](CCC(=O)O)C(=O)O)nc3)cnc2n1`, for which the IC50 in [1] was 0.03 µM. The Ratio in the data set with Columba livia was determined as 1.2. For the same molecule, the EC50 in the data set on KB [2] was 0.006 mg/L (≈ 0.0136 µM). The “Ratio ED50” value in the data set on KB [3] was 1.5. The ILS at 0.44 mg/kg with L1210 [14] turned out to be 69%.
For the molecule `Nc1nc(N)c2nc(CNc3ccc(CC(=O)N[C@@H](CC(=O)O)C(=O)O)cc3)cnc2n1`, the IC50 in data set [1] was determined as 1 µM. The Ratio in the data set with Columba livia was found to be 38. The EC50 in the data set on KB [2] is greater than 100 mg/L. For the same molecule, the ILS at 200 mg/kg with L1210 [15] worked out at 29%.
Take `Nc1nc(N)c2nc(CNc3ccc(C(=O)NC(CCCCC(=O)O)C(=O)O)cc3)cnc2n1` (stereo unspecified): the IC50 in [1] stood at 0.013 µM. In the data set on Columba livia, the Ratio stood at 0.5. In addition, the EC50 in the data set with KB [2] was found to be 0.025 mg/L (≈ 0.0534 µM). Besides, the “Ratio ED50” value with KB [3] came out at 6.3. The ILS at 20 mg/kg in the data set with L1210 [16] was 57%.
As to `Nc1nc(N)c2nc(CNc3ccc(CCC(=O)N[C@@H](CCC(=O)O)C(=O)O)cc3)cnc2n1`, the IC50 in [1] stood at 0.46 µM. Further, the Ratio in the data set with Columba livia turned out to be 33. The EC50 with KB [2] came out at 37 mg/L (≈ 79 µM). In the data set with KB [3], the “Ratio ED50” value is 9300. The ILS at 500 mg/kg in the data set on L1210 [5] worked out at 1%.
In the case of `CN(Cc1cnc2nc(N)nc(N)c2n1)c1ccc(C(=O)N[C@@H](CCC(=O)O)C(=O)O)cc1` [METHOTREXATE], in data set [1], the IC50 was determined as 0.026 µM. Also, the EC50 in the data set with KB [2] came to 0.004 mg/L (≈ 0.0088 µM). In addition, in the data set on L1210 [17], the ILS at 1.5 mg/kg amounted to 72%.
On to `Nc1nc(N)c2nc(CN(Cc3ccccc3)c3ccc(C(=O)N[C@@H](CCC(=O)O)C(=O)O)cc3)cnc2n1`, for which the IC50 in [1] was determined as 14 µM. Besides, in the data set on Columba livia, the Ratio is 310. Also, the EC50 with KB [2] was greater than 100 mg/L.
For `CN(Cc1cnc2nc(N)c(Br)c(N)c2n1)c1ccc(C(=O)N[C@@H](CCC(=O)O)C(=O)O)cc1`, the IC50 in [1] amounted to 2.5 µM. Further, in the data set on Columba livia, the Ratio was 190. Further, in the data set on KB [2], the EC50 worked out at 76 mg/L (≈ 143 µM). For the same molecule, the “Ratio ED50” value in the data set with KB [3] is 19000. The pKa in data set [11] is 5.1. Moreover, the ILS at 200 mg/kg with L1210 [12] was 1%.

Source of the values: ChEMBL document CHEMBL3243930 (J Med Chem, 1979).
